Data on five molecules can be found in ChEMBL document CHEMBL1134252, “Reaction of Lys-Tyr-Lys triad mimics with benzylpenicillin: insight into the role of Tyr150 in class C beta-lactamase” (Bioorg Med Chem Lett, 2001).

The nature of series [1]: Time taken by compound for 10% decrease in benzyl-penicillin concentration. The format is ADME.
Series [2] can be described thus: pKa1 value determined. In kind it is physicochemical. The note with it: read-out: pKa1.
A short description of series [3]: pKa2 value determined. The format is physicochemical. The note with it: read-out: pKa2.

Each structure is given as a SMILES string.

`Cc1cc(CN)c(O)c(CN)c1` showed a Time in series [1] of 1.38 h. In addition, the pKa was 7 in series [2] and 9.7 in series [3].
`Cc1cc([C@@H](N)CO)c(O)c([C@@H](N)CO)c1`: the Time in series [1] was found to be 3.6 h. Further, the pKa in series [2] stood at 6.3; in series [3], 9.
With `Cc1ccc(O)c(CN)c1`, the Time in series [1] is 8.25 h. In series [2], the pKa stood at 8.7.
On to `COc1c(CN)cc(C)cc1CN`, for which, in series [1], the Time came to 44.9 h. For the same molecule, the pKa in series [2] came to 8.5; in series [3] it was 10.2.
In series [1], `Cc1cc(CNCCO)c(O)c(CNCCO)c1` gave a Time of 2.45 h. Further, the pKa in series [2] was 6.4; in series [3] it was 9.7.
